From patent US20250325467A1, “COMPOSITIONS FOR PREVENTING OR TREATING SKIN AGING” (ESTETRA SRL, priority 2021, published 2025)
“Also recorded” adds a separate entry of the source.

How the values were obtained:
[1] = in humans; unlike other estrogens; cited from earlier work
[2] = system: Normal Human Epidermal Keratinocytes (NHEKs); assay: Colonization of a standard acellular area (IBIDI chamber gap closure) by keratinocytes; format: cell-based; settings: vs ethanol control, 6 h and 24 h; for NHEK Proliferation & Migration (colonization of the acellular area): absence of MMC; for NHEK Migration (+MMC) (colonization of the acellular area): presence of MMC
Description: The study consists in an in vitro assay aiming to evaluate the properties of E4 and E2 at 4 concentrations each on keratinocytes and fibroblasts. In this assay, the measurement of the colonization of a standard acellular surface generated from a confluent monolayer of cells using a dedicated culture device (IBIDI chamber) is performed. The assay is performed in absence and in presence of a proliferation inhibitor to focus on cell proliferation and migration or on migration only, respectively.
The study was performed using cultures of Normal Human foreskin-derived Epidermal Keratinocytes (NHEKs, Lonza). The cells were grown in serum free Epilife medium (ThermoFisher Scientific) supplemented with Human Keratinocyte Growth Supplement (HKGS, ThermoFisher Scientific) and antibiotics. The cells were maintained in a humidified incubator at 37° C. with a 5% CO2 atmosphere.
Cells were plated in 2-well silicone inserts with a defined cell free gap (IBIDI chambers; IBIDI GmbH, 80209) that was previously inserted on 12-well culture plates. This culture device allows to create a standardized 500 μm±100 μm cell free gap for monitoring cell colonization. 24 h after seeding, when the culture reached high confluency, cells in the insert were treated, or not, with mitomycin C (MMC) at 10 μg/ml during 2 h. After these 2 hours, the insert was removed, and cells were treated with E2 or E4 in presence or not of MMC for additional 2 h. Then, if appropriate, the culture medium was removed and cells were treated with E2 or E4 for 22 h, in absence of MMC.
For the assay, keratinocytes were plated in Epilife medium without HKGS and all the treatments were performed in this medium. Fibroblasts were plated in DMEM medium containing only 2,5% of FBS and the treatments were performed in absence of FBS.
E2 and E4 were applied at 4 concentrations each (10^−7M, 10^−8M, 10^−9M, 10^−10M). In parallel, cells were treated with a positive control (HKGS 1% for human keratinocytes and PDGF-BB at 10 ng/ml for human fibroblasts).
To monitor cell colonization and to evaluate the gap closure rate, pictures of the gap were taken after different times: at time 0 h, corresponding to the beginning of the treatment with E2 or E4 and to the removal of the culture insert, at time 6 h and at time 24 h (corresponding to the end of the treatments with E2 or E4). Pictures were taken with a microscope Zeiss (Axiover 25-10× objective) and with a camera Invenio2EIII (DeltaPix—Lux-Optic). The colonized areas were quantified from the pictures by the use of the WimAsis platform—WimScratch software. For each insert, 3 pictures were taken at each time. As each condition was performed in triplicates, it means a total of 9 pictures per condition and per time point of acquisition

IL-6 release from NHEKs = assay: PMA/A23187-induced IL-6 release from NHEKs (ELISA, normalized to viability); format: cell-based, human; settings: 24 h, vs stimulated EtOH 0.1% condition
Description: The Normal Human foreskin-derived Epidermal Keratinocytes (NHEKs, Lonza, 00192906), isolated from foreskin of 3 Caucasian donors, were grown in Epilife medium (Fisher Scientific, M-EPI-500-A) supplemented with Human Keratinocyte Growth Supplement (HKGS, Fisher Scientific, S-001-5) and antibiotics (Gentamycin, Fisher Scientific, 15710-049). The cells were maintained in a humidified incubator at 37° C. with a 5% CO2 atmosphere.
E4 and E2, provided as powder, were dissolved in 100% ethanol at 0.1M. They were then further diluted in ethanol and in culture medium to reach the appropriate concentrations. […] Practically, stock solutions 1000-fold concentrated were prepared in 100% ethanol, aliquoted and stored at −20° C. until cell application.
In order to induce the release of IL-6, NHEKs were exposed for 24 h with phorbol myristate acetate (PMA) at 10 ng/mL, in combination with calcium ionophore A23187 (Sigma Aldrich, C5722) at 2 μM. The treatments with the test or reference items were performed simultaneously with the inflammatory challenge. […] E4 was applied at 10^−4, 10^−5, 10^−6, 10^−7 and 10^−8 M and E2 at 10^−5, 10^−6, 10^−7, 10^−8 and 10^−9 M EtOH at 0.1% was tested as solvent control. Dexamethasone at 10 μM was used as anti-inflammatory reference. At the end of 24 h treatment, supernatants were harvested and stored at −20° C., and cell viability assay was assessed by MTS (see section 5). The kinetics of the treatments is outlined in FIG. 12. All the treatments were performed in triplicates (n=3).
The quantification of the release of inflammatory markers was performed using specific ELISA kits, based on standard curves, according to supplier's specifications. The results were then normalized to the corresponding cell viability (obtained by MTS assay).
The supplier's reference of the kits used for IL-6 quantification is as follows: IL-6, BioTechne, D6050.
At the end of the treatments and culture media collection, the viability of the cells was evaluated using the MTS (3-(4,5-dimethythiazol-2-yl)-5-(3-carboxy-methoxyphenyl)-2-(4-sulfophenyl)-2H-tetrazolium) assay. The effects of the treatments were compared to the untreated control condition and to the solvent control (EtOH 0.1%). The viability data were used in order to normalize the quantities of released inflammatory mediators.
NHEKs were treated as described in the methodology section. The quantification of IL-6 by ELISA was performed from the collected supernatants, following the instructions of the kit provider. Only 3 concentrations of the test items (chosen in accordance with the Sponsor following the results of the viability assay) were assessed in the ELISA.

[3] = female, Lister Hooded, rat, in vivo, 0.5 h
Description: Tissue distribution was determined in female rats (partially pigmented and non-pigmented) using [^14C]-estetrol.
A group of six female Lister Hooded rats each received a single oral dose of [^14C]-estetrol. At each selected time (see below) one animal was killed (by overdose of CO2) followed by immediate snap freezing in hexane/solid CO2. The carcasses were retained for examination of the tissue distribution of radioactivity using the technique of quantitative whole body autoradiography (QWBA).
Times for analysis were: (0.5, 8, and 24 hours, 7, 14 and 35 days)
Frozen carcasses were subjected to whole-body autoradiography.
Where concentrations are reported, radioactivity was assumed to be associated with [^14C]-estetrol or any metabolic products derived from [^14C]-estetrol. The specific activities of the dosed test compounds were used for the calculation of concentrations in all cases. Recoveries of radioactivity are reported as percentage of administered radioactivity (% dose). Radioactivity concentrations are also reported as pg equivalents/g.

## C[C@]12CC[C@@H]3c4ccc(O)cc4CC[C@H]3[C@@H]1[C@@H](O)[C@@H](O)[C@@H]2O [E4, 1,3,5 (10)-estratrien-3,15alpha,16alpha,17beta-tetrol]
[1]
  impact on lipid and triglyceride level: very limited impact on lipid and triglyceride level
[2]; 10^−7M
  NHEK Proliferation & Migration (colonization of the acellular area): significantly increased the colonization of the acellular area; also recorded: significantly increases the surface colonized
  NHEK Migration (+MMC) (colonization of the acellular area): significantly increased the colonization of the acellular area; also recorded: significantly increases the surface colonized
[2]; 10^−10M
  NHEK Proliferation & Migration (colonization of the acellular area): significantly increased the colonization of the acellular area; also recorded: significantly increases the surface colonized
  NHEK Migration (+MMC) (colonization of the acellular area): significantly increased the colonization of the acellular area; also recorded: significantly increases the surface colonized
IL-6 release from NHEKs; 10^−5 M
  PMA/A23187-induced IL-6 release: significantly and strongly decreased the release of IL-6; also recorded: strongly and significantly diminished
IL-6 release from NHEKs; 10^−6 M
  PMA/A23187-induced IL-6 release: significantly and strongly decreased the release of IL-6; also recorded: strongly and significantly diminished
IL-6 release from NHEKs; 10^−7 M
  PMA/A23187-induced IL-6 release: significantly and strongly decreased the release of IL-6; also recorded: strongly and significantly diminished
[3]
  radioactivity based on total dose/tissue, non-pigmented skin: 1.1%
  radioactivity based on total dose/tissue, pigmented skin: 1.7%
